The assay concerns the target T1, Human Vanilloid Receptor 1 (Homo sapiens, UniProt Q8NER1).
T1 construct: expressed in transfected cells; host or cells: HEK 293
Nature of the assay: Human VR1 functional assay using FLIPR, Protocol 1. It is filed as cell-based. Conditions: for inhibition at 9 µM: HEK293, 9 uM, inhibition of capsaicin (EC80)-induced calcium response, HEK 293 cells transfected with hVR1, read-out: h % I (9 uM); for pIC50: decreased capsaicin (EC80)-induced calcium response, HEK 293 hVR1, read-out: h IC50; for Emax at 12.2 µM: HEK293, 12.2 uM, test compound-induced calcium response (agonist mode), HEK 293 hVR1, read-out: % maximal reponse to capsaicin (12.2 uM); for pEC50: test compound-induced calcium response at the 5-minute time point, HEK 293 hVR1, read-out: h EC50. As for the experimental part: The functional activity of the test compounds was determined by measuring changes in intracellular calcium concentration using FLIPR™ Calcium-3 Assay Kit and FLIPR™ technology.
HEK 293 cells transfected with Human Vanilloid Receptor 1 were maintained at 37° C. and 5% CO2 in: Dulbecco's Modification of Eagle's Medium (high glucose, L-glutamine, pyridoxine HCl, No sodium pyruvate), 10% FBS, 1× Penicillin-Streptomycin-Amphotericin B, 200 ug/mL zeocin. Approximately 24 hours prior to assay, 30,000 cells/well were plated onto a 384-well black clear bottom poly-D-lysine-coated assay plate with a well volume of 25 µL using Titertek Multidrop.
On the day of the assay, the medium was dumped and 50 μL 1× dye were loaded using Multidrop. Plates were incubated with dye at 37° C. for 30 minutes followed by 30 minutes incubation at room temperature. Then the plates were assayed by FLIPR™ with 2 additions: 12.5 μL test compound with 5 minutes data acquisition followed by 12.5 μL capsaicin at the EC80 concentration.
The EC50 values of test compounds were calculated based on a test compound-induced calcium response at the 5-minute time point. The IC50 values of compounds were calculated based on a decreased capsaicin-induced calcium response in the presence of test compound.

pEC50, pIC50: −log10 of the molar value.

T1 sequence (Q8NER1 whole entry): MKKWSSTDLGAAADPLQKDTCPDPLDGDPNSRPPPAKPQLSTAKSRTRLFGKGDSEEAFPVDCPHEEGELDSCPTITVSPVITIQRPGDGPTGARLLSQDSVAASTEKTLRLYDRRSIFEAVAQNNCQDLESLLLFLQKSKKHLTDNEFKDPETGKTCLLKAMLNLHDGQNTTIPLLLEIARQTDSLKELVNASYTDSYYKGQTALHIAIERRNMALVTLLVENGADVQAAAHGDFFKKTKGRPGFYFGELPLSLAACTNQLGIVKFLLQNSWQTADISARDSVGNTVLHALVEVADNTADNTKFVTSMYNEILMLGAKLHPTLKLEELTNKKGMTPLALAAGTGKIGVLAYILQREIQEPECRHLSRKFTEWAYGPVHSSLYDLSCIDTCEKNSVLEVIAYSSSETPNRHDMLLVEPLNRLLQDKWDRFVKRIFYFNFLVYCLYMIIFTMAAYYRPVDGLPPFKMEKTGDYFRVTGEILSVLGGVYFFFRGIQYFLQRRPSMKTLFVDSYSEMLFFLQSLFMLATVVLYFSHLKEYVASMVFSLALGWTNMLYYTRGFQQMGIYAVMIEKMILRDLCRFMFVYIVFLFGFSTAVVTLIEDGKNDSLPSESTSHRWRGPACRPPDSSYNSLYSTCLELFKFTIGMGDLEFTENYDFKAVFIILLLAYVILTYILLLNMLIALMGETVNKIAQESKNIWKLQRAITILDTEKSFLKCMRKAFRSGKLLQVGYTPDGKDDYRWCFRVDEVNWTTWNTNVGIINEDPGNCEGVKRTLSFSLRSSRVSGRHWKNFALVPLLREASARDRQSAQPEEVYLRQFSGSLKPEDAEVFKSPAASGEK

Regarding `O=C(Nc1cnc2ccccc2c1)C1CCN(c2ccc(-c3ccccc3)cc2)CC1` [Example 1, 1-Biphenyl-4-yl-piperidine-4-carboxylic acid quinolin-3-ylamide], the inhibition at 9 µM is 7%. For the molecule `O=C(Nc1cnc2ccccc2c1)C1CCN(c2cccc(C(F)(F)F)c2)CC1` [Example 2, 1-(3-Trifluoromethyl-phenyl)-piperidine-4-carboxylic acid quinolin-3-ylamide], the inhibition at 9 µM amounted to 109% and the pIC50 is 6.22.

On to `O=C(Nc1cnc2ccccc2c1)C1CCN(c2cccc(-c3ccccc3)c2)CC1` [Example 3, 1-Biphenyl-3-yl-piperidine-4-carboxylic acid quinolin-3-ylamide], for which the inhibition at 9 µM came out at 44% and the pIC50 was 4.81. `O=C(Nc1cnc2ccccc2c1)C1CCN(c2ccc(C(F)(F)F)cc2)CC1` [Example 4, 1-(4-Trifluoromethyl-phenyl)-piperidine-4-carboxylic acid quinolin-3-ylamide]: the inhibition at 9 µM turned out to be 7.5%. As for `Cc1cccc(N2CCC(C(=O)Nc3cnc4ccccc4c3)CC2)c1C` [Example 5, 1-(2,3-Dimethyl-phenyl)-piperidine-4-carboxylic acid quinolin-3-ylamide], the inhibition at 9 µM was 102% and the pIC50 was 6.64. For `CCn1cnc2c(NC(=O)C3CCN(c4cccc(C(F)(F)F)c4)CC3)ncnc21` [Example 7, 1-(3-Trifluoromethyl-phenyl)-piperidine-4-carboxylic acid (9-ethyl-9H-purin-6-yl)-amide], the inhibition at 9 µM worked out at 5%. In the case of `O=C(Nc1ncnc2sccc12)C1CCN(c2cccc(C(F)(F)F)c2)CC1` [Example 10, 1-(3-Trifluoromethyl-phenyl)-piperidine-4-carboxylic acid thieno[2,3-d]pyrimidin-4-ylamide], the Emax at 12.2 µM was 81% and the pEC50 was 6.07. On to `O=C(Nc1cccc2cn[nH]c12)C1CCN(c2cccc(C(F)(F)F)c2)CC1` [Example 11, 1-(3-Trifluoromethyl-phenyl)-piperidine-4-carboxylic acid (1H-indazol-7-yl)-amide], for which the inhibition at 9 µM came to 72% and the pIC50 is 5.55. In the case of `Cc1nsc2ccc(NC(=O)C3CCN(c4cccc(C(F)(F)F)c4)CC3)cc12` [Example 12, 1-(3-Trifluoromethyl-phenyl)-piperidine-4-carboxylic acid (3-methyl-benzo[d]isothiazol-5-yl)-amide], the Emax at 12.2 µM is 74% and the pEC50 is 6.07. For the molecule `CCOC(=O)c1[nH]c2ccccc2c1NC(=O)C1CCN(c2cccc(C(F)(F)F)c2)CC1` [Example 14, 3-{[1-(3-Trifluoromethyl-phenyl)-piperidine-4-carbonyl]-amino}-1H-indole-2-carboxylic acid ethyl ester], the inhibition at 9 µM amounted to 4%. Regarding `O=C(Nc1ccc2c(c1)OCO2)C1CCN(c2cccc(C(F)(F)F)c2)CC1` [Example 15, 1-(3-Trifluoromethyl-phenyl)-piperidine-4-carboxylic acid benzo[1,3]dioxol-5-ylamide], the inhibition at 9 µM was 61% and the pIC50 was 5.34. With `O=C1Cc2cc(NC(=O)C3CCN(c4cccc(C(F)(F)F)c4)CC3)ccc2N1` [Example 17, 1-(3-Trifluoromethyl-phenyl)-piperidine-4-carboxylic acid (2-oxo-2,3-dihydro-1H-indol-5-yl)-amide], the Emax at 12.2 µM came out at 49% and the pEC50 is 6.33. As to `O=C(Nc1ccc2c(c1)OCCO2)C1CCN(c2cccc(C(F)(F)F)c2)CC1` [Example 18, 1-(3-Trifluoromethyl-phenyl)-piperidine-4-carboxylic acid (2,3-dihydro-benzo[1,4]dioxin-6-yl)-amide], the inhibition at 9 µM stood at 12.5%. With `Cc1nc2cc(NC(=O)C3CCN(c4cccc(C(F)(F)F)c4)CC3)ccc2s1` [Example 19, 1-(3-Trifluoromethyl-phenyl)-piperidine-4-carboxylic acid (2-methyl-benzothiazol-5-yl)-amide], the inhibition at 9 µM is 7.5%. For the molecule `O=C(Nc1nsc2ccc([N+](=O)[O-])cc12)C1CCN(c2cccc(C(F)(F)F)c2)CC1` [Example 20, 1-(3-Trifluoromethyl-phenyl)-piperidine-4-carboxylic acid (5-nitro-benzo[d]isothiazol-3-yl)-amide], the inhibition at 9 µM turned out to be 2.5%.

Consider `O=C(Nc1ccc2[nH]ccc2c1)C1CCN(c2cccc(C(F)(F)F)c2)CC1` [Example 22, 1-(3-Trifluoromethyl-phenyl)-piperidine-4-carboxylic acid (1H-indol-5-yl)-amide], for which the inhibition at 9 µM was determined as 78% and the pIC50 was 5.97. For the molecule `O=C(Nc1ccc2cc[nH]c2c1)C1CCN(c2cccc(C(F)(F)F)c2)CC1` [Example 23, 1-(3-Trifluoromethyl-phenyl)-piperidine-4-carboxylic acid (1H-indol-6-yl)-amide], the inhibition at 9 µM stood at 19%. For `Cn1ncc2cc(NC(=O)C3CCN(c4cccc(C(F)(F)F)c4)CC3)ccc21` [Example 24, 1-(3-Trifluoromethyl-phenyl)-piperidine-4-carboxylic acid (1-methyl-1H-indazol-5-yl)-amide], the Emax at 12.2 µM stood at 68.5% and the pEC50 was 5.82. As to `COc1ccc(NC(=O)C2CCN(c3cccc(C(F)(F)F)c3)CC2)cn1` [Example 25, 1-(3-Trifluoromethyl-phenyl)-piperidine-4-carboxylic acid (6-methoxy-pyridin-3-yl)-amide], the Emax at 12.2 µM amounted to 74% and the pEC50 is 6.07. As to `O=C(Nc1ccc2nc(S)sc2c1)C1CCN(c2cccc(C(F)(F)F)c2)CC1` [Example 26, 1-(3-Trifluoromethyl-phenyl)-piperidine-4-carboxylic acid (2-mercapto-benzothiazol-6-yl)-amide], the Emax at 12.2 µM worked out at 35.5% and the pEC50 is 5.59. For the molecule `O=C(Nc1ccc(O)c2ncccc12)C1CCN(c2cccc(C(F)(F)F)c2)CC1` [Example 27, 1-(3-Trifluoromethyl-phenyl)-piperidine-4-carboxylic acid (8-hydroxy-quinolin-5-yl)-amide], the inhibition at 9 µM is 13%. Take `O=C(Nc1ccc2c(c1)OCCCO2)C1CCN(c2cccc(C(F)(F)F)c2)CC1` [Example 28, 1-(3-Trifluoromethyl-phenyl)-piperidine-4-carboxylic acid (3,4-dihydro-2H-benzo[b][1,4]dioxepin-7-yl)-amide]: the inhibition at 9 µM came to 77% and the pIC50 is 5.66. Regarding `CC(=O)N1CCc2cc(NC(=O)C3CCN(c4cccc(C(F)(F)F)c4)CC3)ccc21` [Example 29, 1-(3-Trifluoromethyl-phenyl)-piperidine-4-carboxylic acid (1-acetyl-2,3-dihydro-1H-indol-5-yl)-amide], the inhibition at 9 µM was found to be 13%. Consider `O=C(Nc1cccc2cc[nH]c12)C1CCN(c2cccc(C(F)(F)F)c2)CC1` [Example 30, 1-(3-Trifluoromethyl-phenyl)-piperidine-4-carboxylic acid (1H-indol-7-yl)-amide], for which the Emax at 12.2 µM was 40% and the pEC50 is 5.27. For the molecule `O=C(Nc1ccc2c(=O)[nH][nH]c(=O)c2c1)C1CCN(c2cccc(C(F)(F)F)c2)CC1` [Example 31, 1-(3-Trifluoromethyl-phenyl)-piperidine-4-carboxylic acid (1,4-dioxo-1,2,3,4-tetrahydro-phthalazin-6-yl)-amide], the inhibition at 9 µM is 16%. Still for that read-out and setting: under `O=C(Nc1ccc(Oc2ccccc2)nc1)C1CCN(c2cccc(C(F)(F)F)c2)CC1` [Example 32, 1-(3-Trifluoromethyl-phenyl)-piperidine-4-carboxylic acid (6-phenoxy-pyridin-3-yl)-amide] stands 13%.

As to `CN(C)c1nc(NC(=O)C2CCN(c3cccc(C(F)(F)F)c3)CC2)ncc1-c1ccccc1` [Example 35, 1-(3-Trifluoromethyl-phenyl)-piperidine-4-carboxylic acid (4-dimethylamino-5-phenyl-pyrimidin-2-yl)-amide], the inhibition at 9 µM is 14%. Turning to `CCOC(=O)c1c(C)nn(-c2ccc(NC(=O)C3CCN(c4cccc(C(F)(F)F)c4)CC3)cn2)c1C` [Example 36, 3,5-Dimethyl-1-(5-{[1-(3-trifluoromethyl-phenyl)-piperidine-4-carbonyl]-amino}-pyridin-2-yl)-1H-pyrazole-4-carboxylic acid ethyl ester], the inhibition at 9 µM was 14%.

Consider `CC(=O)N1c2cc(NC(=O)C3CCN(c4cccc(C(F)(F)F)c4)CC3)ccc2CC1C` (stereo not shown) [Example 37, 1-(3-Trifluoromethyl-phenyl)-piperidine-4-carboxylic acid (1-acetyl-2-methyl-2,3-dihydro-1H-indol-6-yl)-amide], for which the inhibition at 9 µM was 46.5% and the pIC50 was 5.58.

`O=C1Cc2ccc(NC(=O)C3CCN(c4cccc(C(F)(F)F)c4)CC3)cc2N1` [Example 38, 1-(3-Trifluoromethyl-phenyl)-piperidine-4-carboxylic acid (2-oxo-2,3-dihydro-1H-indol-6-yl)-amide]: the Emax at 12.2 µM is 62.8% and the pEC50 is 6.49.

One may read the pIC50 as −log10 of the IC50, conventionally taken in molar units. Broadly, the pEC50 is −log10 of the EC50, conventionally taken in molar units.

Values taken from patent publication US20060116368A1, “4-Piperidinecarboxamide modulators of vanilloid VR1 receptor” (priority 2004, published 2006).
